Measured values published in PMC11861015, “Discovery of novel naphthalene-based diarylamides as pan-Raf kinase inhibitors with promising anti-melanoma activity: rational design, synthesis, in vitro and in silico screening” (Archives of Pharmacal Research, 2025).

Legend:
[1] = test system: human melanoma cell line (A375); assay: In vitro cytotoxic activity (MTT assay); assay type: cell-based; conditions: for IC50: Homo sapiens, A-375, A375 cells, read-out: IC50 values (μM) against A375
Procedure: Melanoma skin cancer cell line (A375) of American Type Culture Collection (ATCC) was obtained from Korean Cell Line Bank (KCLB). The A375 cells were cultured in Dulbecco’s modified eagle’s medium (DMEM) (GenDepot) supplemented with 1% penicillin–streptomycin and 10% fetal bovine serum (FBS). The cells were maintained at 37 °C in a 5% CO2 with a 95% humid atmosphere. MTT assay, analysis of the cell cycle distribution, apoptosis analysis, and statistical analysis were carried out following known standard protocols adopted by our team earlier (Son et al. [2023]). […]

c-Raf = c-Raf (Homo sapiens, UniProt P04049); assay: In vitro biochemical kinase assay (Kinase HotSpot, Reaction Biology), one-point and 10-dose; conditions: ATP 10 μM; for inhibition at 10 µM: 10 µM compound, duplicate, read-out: In vitro protein kinase inhibition values (%) c-Raf
Sequence of c-Raf (P04049 whole entry): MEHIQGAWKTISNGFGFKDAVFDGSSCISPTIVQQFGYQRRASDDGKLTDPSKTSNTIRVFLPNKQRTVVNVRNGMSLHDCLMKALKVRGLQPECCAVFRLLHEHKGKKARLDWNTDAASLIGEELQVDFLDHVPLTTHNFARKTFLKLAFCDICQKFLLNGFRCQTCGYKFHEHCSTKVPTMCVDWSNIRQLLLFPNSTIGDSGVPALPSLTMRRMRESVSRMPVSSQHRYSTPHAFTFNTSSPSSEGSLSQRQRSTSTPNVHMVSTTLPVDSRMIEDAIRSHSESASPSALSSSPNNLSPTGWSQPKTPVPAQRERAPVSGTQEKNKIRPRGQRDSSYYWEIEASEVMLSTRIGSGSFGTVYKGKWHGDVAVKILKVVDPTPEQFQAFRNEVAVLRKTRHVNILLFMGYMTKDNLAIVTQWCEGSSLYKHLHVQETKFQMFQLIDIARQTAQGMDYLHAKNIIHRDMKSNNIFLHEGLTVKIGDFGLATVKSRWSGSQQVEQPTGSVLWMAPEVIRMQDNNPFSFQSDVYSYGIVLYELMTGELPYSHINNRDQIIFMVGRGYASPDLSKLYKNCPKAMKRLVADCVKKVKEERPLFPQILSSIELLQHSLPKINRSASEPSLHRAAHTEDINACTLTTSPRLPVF

B-Raf^WT = biological target: T1, B-Raf^WT (Homo sapiens, UniProt P15056); assay: as above; conditions: ATP 10 μM; for inhibition at 10 µM: 10 µM compound, duplicate, read-out: In vitro protein kinase inhibition values (%) B-Raf^WT
T1 construct: purchased Reaction Biology Co. (Kinase HotSpot service)
T1 sequence (P15056 whole entry): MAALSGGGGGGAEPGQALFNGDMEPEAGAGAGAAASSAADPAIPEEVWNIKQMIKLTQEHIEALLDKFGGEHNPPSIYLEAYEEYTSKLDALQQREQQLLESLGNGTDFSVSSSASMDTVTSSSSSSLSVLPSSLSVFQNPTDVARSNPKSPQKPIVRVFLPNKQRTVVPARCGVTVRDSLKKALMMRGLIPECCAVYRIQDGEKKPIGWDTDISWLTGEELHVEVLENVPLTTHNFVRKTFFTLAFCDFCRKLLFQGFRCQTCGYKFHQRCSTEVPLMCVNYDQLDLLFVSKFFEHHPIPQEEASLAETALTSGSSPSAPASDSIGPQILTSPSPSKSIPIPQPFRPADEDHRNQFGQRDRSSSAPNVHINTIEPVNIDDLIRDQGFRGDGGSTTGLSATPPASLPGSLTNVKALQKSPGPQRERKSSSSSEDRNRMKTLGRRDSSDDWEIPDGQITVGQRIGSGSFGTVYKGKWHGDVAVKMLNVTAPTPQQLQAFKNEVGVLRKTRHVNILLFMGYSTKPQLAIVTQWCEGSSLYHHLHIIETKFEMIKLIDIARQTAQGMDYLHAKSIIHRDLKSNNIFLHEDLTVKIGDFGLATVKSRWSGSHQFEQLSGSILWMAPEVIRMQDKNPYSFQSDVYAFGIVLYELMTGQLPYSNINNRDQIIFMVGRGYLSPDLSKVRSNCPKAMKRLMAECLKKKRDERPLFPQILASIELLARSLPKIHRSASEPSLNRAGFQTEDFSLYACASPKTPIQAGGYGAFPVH

B-Raf^V600E = biological target: T2, B-Raf^V600E (Homo sapiens, UniProt P15056, V600E); assay: as above; conditions: ATP 10 μM; for inhibition at 10 µM: 10 µM compound, duplicate, read-out: In vitro protein kinase inhibition values (%) B-Raf^V600E
T2 construct: purchased Reaction Biology Co. (Kinase HotSpot service)
T2 sequence (P15056 whole entry V600E): as the sequence (P15056 whole entry) above, with V600E counted along it

Raf kinase enzyme = biological target: Raf kinase enzyme; parameters: method as in Buchstaller et al. [2011]; conditions: ref Buchstaller et al. [2011]; read-out: IC50 against the Raf kinase enzyme; cited from earlier work
melanoma cell line A375 [2] = assay: Apoptosis analysis (PE-Annexin V / DAPI); conditions: dosage close to IC50, dot plot
Source text: PE-conjugated Annexin V maintains its strong binding to phosphatidylserine (PS), serving as a sensitive marker for flow cytometric assessment of apoptotic cells. The staining with PE Annexin V precedes the loss of membrane integrity observed in the later phases of cell death, whether induced by apoptotic or necrotic processes. Therefore, PE Annexin V staining is commonly employed alongside a vital dye like propidium iodide (PI) or DAPI. This combination allows researchers to distinguish early apoptotic cells (DAPI negative, PE Annexin V positive) from viable cells with intact membranes, which exclude DAPI. In contrast, the membranes of dead or damaged cells become permeable to DAPI. […] The sequential movement of cells through these stages serves as an indicative pattern of apoptosis.
For a more appropriate investigation of cell death, the compound-treated cells and control A375 cells were stained with PE-Annexin V and DAPI. […] A kind of controlled cell death known as apoptosis may be identified with the use of Annexin V and the DAPI reagent. These two fluorophores are used in the dot plot and image data to identify early and late apoptotic cells.

melanoma cell line A375 [3] = assay: Cell cycle analysis; conditions: A375 cells treated at IC50
[4] = test system: Raf kinase enzymes (B-Raf^WT, B-Raf^V600E, and c-Raf); assay: One-point kinase assay, summary across Raf kinases; assay type: biochemical; conditions: 10 μM compound, ATP 10 μM, span over B-Raf^WT
Procedure: (§1) The in vitro kinase inhibitory assays (both one-point and ten-point assays) were performed at Reaction Biology Co. (Malvern, PA, USA). Kinase HotSpot service was used for screening the tested derivatives. The experiment protocol is previously described in detail (Elkamhawy et al. [2016]).
To evaluate the new structural design of our compounds (9a–i), the biochemical activity was evaluated against Raf kinase enzymes (B-Raf^WT, B-Raf^V600E, and c-Raf) in one-point dose (10 μM) at duplicate mode using ATP concentration 10 μM. The results are presented in Table 2 and expressed in % inhibition.

ROS/ROS1 = biological target: T3, ROS/ROS1 (Homo sapiens, UniProt P08922); assay: Kinase selectivity assay, one-point; assay type: biochemical; conditions: 10 µM compound, duplicate, ATP 10 μM
T3 construct: purchased Reaction Biology Co. (Kinase HotSpot service)
T3 sequence (P08922 28-2347): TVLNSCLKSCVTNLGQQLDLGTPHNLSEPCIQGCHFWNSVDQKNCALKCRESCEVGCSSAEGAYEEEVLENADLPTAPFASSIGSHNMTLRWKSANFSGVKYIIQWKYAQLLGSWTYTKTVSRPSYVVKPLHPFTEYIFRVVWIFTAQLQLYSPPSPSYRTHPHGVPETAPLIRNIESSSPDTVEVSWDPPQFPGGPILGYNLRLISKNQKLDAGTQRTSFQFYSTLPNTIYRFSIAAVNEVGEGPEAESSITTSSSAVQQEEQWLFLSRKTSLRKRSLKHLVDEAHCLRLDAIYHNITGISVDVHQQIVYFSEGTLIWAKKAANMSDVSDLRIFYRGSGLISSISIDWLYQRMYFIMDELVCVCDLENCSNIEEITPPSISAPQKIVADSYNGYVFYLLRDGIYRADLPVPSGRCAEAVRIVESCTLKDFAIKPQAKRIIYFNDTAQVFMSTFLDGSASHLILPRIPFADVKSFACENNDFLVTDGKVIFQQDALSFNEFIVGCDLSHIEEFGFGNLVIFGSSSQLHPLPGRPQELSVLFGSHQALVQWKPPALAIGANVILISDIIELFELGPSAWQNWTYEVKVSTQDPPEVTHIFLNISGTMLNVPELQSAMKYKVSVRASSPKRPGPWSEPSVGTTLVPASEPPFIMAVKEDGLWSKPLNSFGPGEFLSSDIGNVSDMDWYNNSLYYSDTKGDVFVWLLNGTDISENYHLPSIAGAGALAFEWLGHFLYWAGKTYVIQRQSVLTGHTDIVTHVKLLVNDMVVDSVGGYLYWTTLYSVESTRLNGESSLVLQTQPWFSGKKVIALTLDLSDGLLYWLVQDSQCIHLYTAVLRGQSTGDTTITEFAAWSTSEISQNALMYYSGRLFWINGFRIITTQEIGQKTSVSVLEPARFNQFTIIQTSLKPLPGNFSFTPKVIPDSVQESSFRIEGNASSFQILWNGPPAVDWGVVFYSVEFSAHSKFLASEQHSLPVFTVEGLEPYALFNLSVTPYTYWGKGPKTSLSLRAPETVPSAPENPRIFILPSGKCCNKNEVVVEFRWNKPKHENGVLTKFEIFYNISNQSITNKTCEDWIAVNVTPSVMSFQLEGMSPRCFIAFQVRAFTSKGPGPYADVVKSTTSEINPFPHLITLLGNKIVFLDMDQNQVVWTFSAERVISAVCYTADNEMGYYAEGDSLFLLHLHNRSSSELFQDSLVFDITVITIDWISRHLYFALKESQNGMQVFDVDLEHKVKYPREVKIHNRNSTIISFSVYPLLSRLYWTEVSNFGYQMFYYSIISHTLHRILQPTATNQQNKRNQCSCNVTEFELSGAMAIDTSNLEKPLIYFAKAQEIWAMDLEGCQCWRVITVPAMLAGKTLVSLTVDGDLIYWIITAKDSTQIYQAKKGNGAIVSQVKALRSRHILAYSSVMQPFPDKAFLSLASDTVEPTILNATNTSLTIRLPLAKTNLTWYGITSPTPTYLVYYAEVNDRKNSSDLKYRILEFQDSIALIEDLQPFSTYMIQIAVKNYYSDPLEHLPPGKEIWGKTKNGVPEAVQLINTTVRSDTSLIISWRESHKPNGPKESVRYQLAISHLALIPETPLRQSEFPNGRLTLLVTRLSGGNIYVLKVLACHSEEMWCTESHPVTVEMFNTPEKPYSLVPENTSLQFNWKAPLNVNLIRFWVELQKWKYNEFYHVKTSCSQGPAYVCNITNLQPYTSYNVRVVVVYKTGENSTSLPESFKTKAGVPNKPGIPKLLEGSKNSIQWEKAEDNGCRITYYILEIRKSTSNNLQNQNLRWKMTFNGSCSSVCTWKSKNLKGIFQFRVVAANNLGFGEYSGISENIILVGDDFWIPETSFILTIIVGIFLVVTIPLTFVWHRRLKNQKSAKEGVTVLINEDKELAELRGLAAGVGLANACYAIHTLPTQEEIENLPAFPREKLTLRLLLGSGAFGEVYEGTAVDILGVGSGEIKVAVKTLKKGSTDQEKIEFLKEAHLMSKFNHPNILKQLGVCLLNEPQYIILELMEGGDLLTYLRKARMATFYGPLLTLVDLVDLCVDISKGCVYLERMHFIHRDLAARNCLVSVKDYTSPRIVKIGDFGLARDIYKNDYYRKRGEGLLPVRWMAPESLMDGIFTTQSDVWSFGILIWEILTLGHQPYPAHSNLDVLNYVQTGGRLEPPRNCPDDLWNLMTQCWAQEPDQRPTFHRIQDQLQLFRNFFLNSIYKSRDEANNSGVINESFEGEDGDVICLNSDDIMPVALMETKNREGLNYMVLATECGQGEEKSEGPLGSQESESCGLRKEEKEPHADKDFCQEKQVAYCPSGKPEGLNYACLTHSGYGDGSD
Procedure: as §1
(§2) No significant inhibition was observed over the other tested kinases.

ERK2/MAPK1 = biological target: T4, ERK2/MAPK1 (Homo sapiens, UniProt P28482); assay: Kinase selectivity assay, one-point; assay type: biochemical; conditions: 10 µM compound, duplicate, ATP 10 μM
T4 construct: purchased Reaction Biology Co. (Kinase HotSpot service)
T4 sequence (P28482 whole entry): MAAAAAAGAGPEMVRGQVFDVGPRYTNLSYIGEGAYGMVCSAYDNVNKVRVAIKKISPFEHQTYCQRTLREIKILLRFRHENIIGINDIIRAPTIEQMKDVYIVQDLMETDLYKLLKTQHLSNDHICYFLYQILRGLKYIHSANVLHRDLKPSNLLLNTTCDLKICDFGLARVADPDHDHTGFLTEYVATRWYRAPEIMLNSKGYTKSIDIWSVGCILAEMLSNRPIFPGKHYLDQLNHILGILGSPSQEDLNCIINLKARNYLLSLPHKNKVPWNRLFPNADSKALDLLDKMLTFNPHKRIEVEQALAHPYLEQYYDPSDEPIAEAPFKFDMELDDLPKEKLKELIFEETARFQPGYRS
Procedure: as §1, §2

ALK = biological target: T5, ALK (Homo sapiens, UniProt Q9UM73); assay: Kinase selectivity assay, one-point; assay type: biochemical; conditions: 10 µM compound, duplicate, ATP 10 μM
T5 construct: purchased Reaction Biology Co. (Kinase HotSpot service)
Procedure: as §1, §2

TRKB = biological target: T6, TRKB (Homo sapiens, UniProt Q16620); assay: Kinase selectivity assay, one-point; assay type: biochemical; conditions: 10 µM compound, duplicate, ATP 10 μM
T6 construct: purchased Reaction Biology Co. (Kinase HotSpot service)
Procedure: as §1, §2

FGFR1 = biological target: T7, FGFR1 (Homo sapiens, UniProt P11362); assay: Kinase selectivity assay, one-point; assay type: biochemical; conditions: 10 µM compound, duplicate, ATP 10 μM
T7 construct: purchased Reaction Biology Co. (Kinase HotSpot service)
T7 sequence (P11362 22-822): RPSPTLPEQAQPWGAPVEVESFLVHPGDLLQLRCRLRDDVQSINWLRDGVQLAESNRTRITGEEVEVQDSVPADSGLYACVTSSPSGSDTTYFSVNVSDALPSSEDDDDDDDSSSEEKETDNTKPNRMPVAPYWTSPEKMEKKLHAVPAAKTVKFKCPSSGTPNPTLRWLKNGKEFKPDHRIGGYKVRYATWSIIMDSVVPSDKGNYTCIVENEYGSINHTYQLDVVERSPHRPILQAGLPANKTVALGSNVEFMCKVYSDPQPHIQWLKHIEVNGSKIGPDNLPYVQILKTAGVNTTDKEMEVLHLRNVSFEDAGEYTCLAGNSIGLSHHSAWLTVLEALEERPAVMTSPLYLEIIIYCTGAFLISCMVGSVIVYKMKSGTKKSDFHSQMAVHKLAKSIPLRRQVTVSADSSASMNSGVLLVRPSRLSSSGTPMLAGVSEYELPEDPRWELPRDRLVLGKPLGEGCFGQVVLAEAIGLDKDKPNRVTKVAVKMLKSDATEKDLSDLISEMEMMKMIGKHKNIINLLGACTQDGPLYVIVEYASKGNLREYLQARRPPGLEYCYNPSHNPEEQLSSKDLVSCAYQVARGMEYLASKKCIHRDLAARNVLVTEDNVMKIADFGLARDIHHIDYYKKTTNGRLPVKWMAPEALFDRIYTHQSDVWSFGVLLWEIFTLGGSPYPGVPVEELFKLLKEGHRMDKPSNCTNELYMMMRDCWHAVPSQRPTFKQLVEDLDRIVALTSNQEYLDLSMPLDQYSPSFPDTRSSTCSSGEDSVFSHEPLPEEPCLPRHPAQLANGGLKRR
Procedure: as §1, §2

mTOR/FRAP1 = biological target: T8, mTOR/FRAP1 (Homo sapiens, UniProt P42345); assay: Kinase selectivity assay, one-point; assay type: biochemical; conditions: 10 µM compound, duplicate, ATP 10 μM
T8 construct: purchased Reaction Biology Co. (Kinase HotSpot service)
Procedure: as §1, §2

[5] = 10-dose, threefold serial dilution from 20 μM

SMILES	IC50 [1] [µM]	inhibition at 10 µM (c-Raf) [%]	inhibition at 10 µM (B-Raf^WT) [%]	inhibition at 10 µM (B-Raf^V600E) [%]	further results
CNC(=O)c1cc(Oc2ccc3c(C(=O)Nc4ccc(C(C)C)cc4)cccc3c2)ccn1 [Compound 9b, 4-((5-((4-Isopropylphenyl)carbamoyl)naphthalen-2-yl)oxy)-N-methylpicolinamide]	0.17 ± 0.012	99.7	98.4	98.4	
CNC(=O)c1cc(Oc2ccc3c(C(=O)Nc4ccc(I)cc4)cccc3c2)ccn1 [Compound 9c, 4-((5-((4-Iodophenyl)carbamoyl)naphthalen-2-yl)oxy)-N-methylpicolinamide]	0.67 ± 0.017	98.9	92.7	88.6	
CNC(=O)c1cc(Oc2ccc3c(C(=O)Nc4ccc(C)c(C)c4)cccc3c2)ccn1 [Compound 9g, 4-((5-((3,4-Dimethylphenyl)carbamoyl)naphthalen-2-yl)oxy)-N-methylpicolinamide]	1.42 ± 0.013	99.8	99.3	100	
CNC(=O)c1cc2ccc(CCNC(=O)Nc3cc(C(F)(F)F)c(Cl)cc3OC)cc2cn1 [Compound 4]					IC50 (Raf kinase enzyme): 80 nM
CNC(=O)c1cc(Oc2ccc(NC(=O)Nc3ccc(Cl)c(C(F)(F)F)c3)cc2)ccn1 [Sorafenib]	0.92 ± 0.018				N quadrant cells (melanoma cell line A375 [2]): 12.49%; early apoptosis (E.A) cells (melanoma cell line A375 [2]): 4.03%; late apoptosis (L.A) cells (melanoma cell line A375 [2]): 4.34%; live (L) cells (melanoma cell line A375 [2]): 79.14%; G0/G1 phase Percent (melanoma cell line A375 [3]): 34.08%; G2/M phase Percent (melanoma cell line A375 [3]): 13.41%; S phase Percent (melanoma cell line A375 [3]): 49.72%; G0/G1 phase Percent (melanoma cell line A375 [3]; listed as sorafenib): 34.08%; G2/M phase Percent (melanoma cell line A375 [3]; listed as sorafenib): 13.41%; S phase Percent (melanoma cell line A375 [3]; listed as sorafenib): 49.72%
CNC(=O)c1cc(Oc2ccc3c(C(=O)Nc4ccc(F)cc4)cccc3c2)ccn1 [Compound 9f, 4-((5-((4-Fluorophenyl)carbamoyl)naphthalen-2-yl)oxy)-N-methylpicolinamide]	0.44 ± 0.008	96.5	74.7	75.8	
CNC(=O)c1cc(Oc2ccc3c(C(=O)Nc4ccc(OC)c(Cl)c4)cccc3c2)ccn1 [Compound 9i, 4-((5-((3-Chloro-4-methoxyphenyl)carbamoyl)naphthalen-2-yl)oxy)-N-methylpicolinamide]	1.75 ± 0.021	99.6	99.7	100	
CNC(=O)c1cc(Oc2ccc3c(C(=O)Nc4ccc(OC)c(F)c4)cccc3c2)ccn1 [Compound 9d, 4-((5-((3-Fluoro-4-methoxyphenyl)carbamoyl)naphthalen-2-yl)oxy)-N-methylpicolinamide]	0.54 ± 0.019	99.6	97.4	98.2	
CNC(=O)c1cc(Oc2ccc3c(C(=O)Nc4ccc(N5CCOCC5)c(F)c4)cccc3c2)ccn1 [Compound 9e, 4-((5-((3-Fluoro-4-morpholinophenyl)carbamoyl)naphthalen-2-yl)oxy)-N-methylpicolinamide]	4.46 ± 0.024	76.3	42.1	24.9	IC50 values (μM) against A375 ([1]; A375 cells): weak cytotoxic activity; % inhibition across the tested Raf kinases [4]: 24.93–76.30%
CNC(=O)c1cc(Oc2ccc3c(C(=O)Nc4cc(C)cc(Br)c4)cccc3c2)ccn1 [Compound 9h, 4-((5-((3-Bromo-5-methylphenyl)carbamoyl)naphthalen-2-yl)oxy)-N-methylpicolinamide]	1.67 ± 0.032	99.8	99.6	100	
CNC(=O)c1cc(Oc2ccc3c(C(=O)Nc4cccc(OC(F)F)c4)cccc3c2)ccn1 [Compound 9a, 4-((5-((3-(Difluoromethoxy)phenyl)carbamoyl)naphthalen-2-yl)oxy)-N-methylpicolinamide]	0.12 ± 0.013	99.8	99.4	100	N quadrant cells (melanoma cell line A375 [2]): 6.69%; early apoptosis (E.A) cells (melanoma cell line A375 [2]): 9.11%; late apoptosis (L.A) cells (melanoma cell line A375 [2]): 3.54%; live (L) cells (melanoma cell line A375 [2]): 80.66%; IC50 (c-Raf; [5]): 2.86 nM; G0/G1 phase Percent (melanoma cell line A375 [3]): 18.92%; G2/M phase Percent (melanoma cell line A375 [3]): 6.45%; S phase Percent (melanoma cell line A375 [3]): 71.83%; IC50 (B-Raf^WT; [5]): 49.7 nM; inhibition at 10 µM (ROS/ROS1): 0%; inhibition at 10 µM (ERK2/MAPK1): 0%; inhibition at 10 µM (ALK): 8.23%; inhibition at 10 µM (TRKB): 17.3%; inhibition at 10 µM (FGFR1): 86.2%; inhibition at 10 µM (mTOR/FRAP1): 0%; IC50 (B-Raf^V600E; [5]): 18 nM
